Measurements: ChEMBL document CHEMBL6103547, “Comprehensive exploration of isocitrate dehydrogenase (IDH) mutations: Tumorigenesis, drug discovery, and covalent inhibitor advances” (Eur J Med Chem, 2025)
Each block holds one compound with its values, some of them ahead of it.

Experiments:
[1] = Inhibition of IDH2 R172S mutant (unknown origin); set-up: species or system Homo sapiens
[2] = Downregulation of HoxA9 expression in human AML3 cells; type: functional, cell-based
[3] = target: Isocitrate dehydrogenase [NADP], mitochondrial (Homo sapiens, UniProt P48735, R140Q); experiment: Inhibition of FLAG-tagged IDH2 R140Q mutant (unknown origin) extracted from baculovirus infected Sf9 cells
Sequence of Isocitrate dehydrogenase [NADP], mitochondrial (Homo sapiens, UniProt P48735, R140Q) (P48735 40-452 R140Q limits assumed): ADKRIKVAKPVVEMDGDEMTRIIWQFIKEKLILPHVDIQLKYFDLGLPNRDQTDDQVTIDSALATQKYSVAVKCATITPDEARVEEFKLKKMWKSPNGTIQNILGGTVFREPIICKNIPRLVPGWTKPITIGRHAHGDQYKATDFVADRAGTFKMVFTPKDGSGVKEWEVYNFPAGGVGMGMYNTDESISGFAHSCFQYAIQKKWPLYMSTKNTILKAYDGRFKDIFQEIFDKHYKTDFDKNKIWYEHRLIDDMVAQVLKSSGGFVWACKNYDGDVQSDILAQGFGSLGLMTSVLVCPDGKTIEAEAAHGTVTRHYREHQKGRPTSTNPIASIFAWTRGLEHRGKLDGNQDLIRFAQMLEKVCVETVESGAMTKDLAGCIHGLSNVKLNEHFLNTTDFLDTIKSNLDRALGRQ

[4] = test system: U-87 MG; experiment: Antiproliferative activity against human U87; type: functional, cell-based, U-87MG ATCC
[5] = target: Isocitrate dehydrogenase [NADP], mitochondrial (Homo sapiens, UniProt P48735, R172K); experiment: Inhibition of FLAG-tagged IDH2 R172K mutant (unknown origin) extracted from baculovirus infected Sf9 cells
Sequence of Isocitrate dehydrogenase [NADP], mitochondrial (Homo sapiens, UniProt P48735, R172K) (P48735 40-452 R172K limits assumed): as the sequence (P48735 40-452 R140Q limits assumed) above, with Q101R, R133K counted along it

[6] = test system: HCT-116; experiment: Antiproliferative activity against human HCT-116 cells; type: functional, cell-based
[7] = test system: TF-1; experiment: Antiproliferative activity against human TF-1 cells; type: functional, cell-based

IC50 [1]: 1030 nM
SMILES: C[C@H](O)c1cccc(NC(=O)c2nn(Cc3ccc(F)cc3)c3c2CN(C(=O)c2ccc[nH]2)C[C@H]3C)c1

IC50 [2]: 60 nM
SMILES: C[C@H]1C[C@@H](n2c(Nc3ccc(OC(F)(F)F)cc3)nc3cc(CCC(=O)O)ccc32)CC(C)(C)C1 [BAY1436032]

SMILES: CC(C)(O)CNc1nc(Nc2ccnc(C(F)(F)F)c2)nc(-c2cccc(C(F)(F)F)n2)n1 [ENASIDENIB]
IC50 [3]: 320 nM
IC50 [4]: 10 nM
IC50 [5]: 200 nM
IC50 [6]: 530 nM
IC50 [7]: 20 nM
